Test results: patent US20050209198A1, “Pharmaceutical composition comprising a bisphosphonate and a cox-2 inhibitor for the treatment of bone diseases” (priority 2002, published 2005)

Assays:
[1] = test system: patients with postmenopausal osteoporosis; assay: 24 months trial of iv zoledronic acid, bone mineral density (BMD) by DEXA; format: in vivo; details: bolus iv, dose administration as infrequent as every 6 or 12 months, compared to placebo
Method: (§1) A dose and dose regimen-finding 24 months trial of iv zoledronic acid in patients with postmenopausal osteoporosis is carried out. Three hundred and fifty one patients are randomized to six study arms. […] All patients are evaluated at baseline and in 3-monthly visits. Zoledronic acid or placebo was administered as a bolus iv injection into a peripheral vein over 5 minutes at every visit. Patients from both zoledronic acid treated and placebo groups also receive an oral COX-2 inhibitor (5-methyl-2-(2′-chloro-6′-fluoroanilino)phenylacetic acid—400 mg per day p.o.) or oral placebo.
(§2) Efficacy is ascertained by measurement of percent change from baseline in bone mineral density (BMD) measured by dual energy X-ray absorptiometry (DEXA) as compared to placebo, at 6, 9, and 12 months. Patients also maintain records of pain scores on a once weekly basis and are monitored for pain scores at the 3-monthly visits.
• Placebo • 0.25 mg zoledronic acid every 3 months • 0.5 mg zoledronic acid every 3 months • 1.0 mg zoledronic acid every 3 months • 2.0 mg zoledronic acid every 6 months • 4.0 mg zoledronic acid every 12 months each with 50% COX-2 treatment and 50% oral placebo.

[2] = test system: patients with postmenopausal osteoporosis; assay: Pain scores and general well being in the same trial, oral COX-2 inhibitor vs oral placebo; format: in vivo; details: 400 mg per day p.o. vs oral placebo, on zoledronic acid or placebo background
Method: as §1, §2

Structure (SMILES): O=P(O)(O)C(O)(Cn1ccnc1)P(=O)(O)O [zoledronic acid, 1-hydroxy-2-(imidazol-1-yl)ethane-1,1-diphosphonic acid]
- bone mineral density (BMD), bone mass change [1]: statistically significant and medically relevant bone mass increase

Structure (SMILES): Cc1ccc(Nc2c(F)cccc2Cl)c(CC(=O)O)c1 [COX-2, 5-methyl-2-(2′-chloro-6′-fluoroanilino)phenylacetic acid]
- pain scores and general well being of patients [2]: show improvement over the oral placebo treated groups
